The results in this text go back to ChEMBL document CHEMBL1201862, “PubChem BioAssay data set” (2004).

Common to all, as to assay: growth of human tumour cells (NCI), 48 h
Assay [1] relates to UO-31.
The subject of assay [2] is SF-295.
Assay [3] has as its system HCC 2998.
Assay [4] has as its system OVCAR-3.
For assay [5], the system named is UACC-62.
Assay [6] relates to SW-620.
The subject of assay [7] is NCI-H460.
In assay [8] the test system is SK-MEL-2.
The test system of assay [9] is HL-60.
The subject of assay [10] is CCRF-CEM.
Assay [11] deals with EKVX.
In assay [12] the test system is IGROV-1.
The subject of assay [13] is COLO 205.
Assay [14] deals with Malme-3M.
Assay [15] relates to SF-268.
Assay [16] relates to LOX IMVI.
For assay [17], the system named is U-251.
The test system of assay [18] is OVCAR-8.
Assay [19] deals with A549.
Assay [20] has as its system OVCAR-5.

Where “and” joins values, the source holds several entries; their conditions need not be identical. Equal values may be shown once.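 1) Cells in 96-well plates. 2) Compound, 48 h, 5 concentrations. 3) Linear interpolation between surrounding doses. 4) Unreached endpoint = highest concentration. GI50: concentration for 50% inhibition of growth.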 Calls of active or inactive are those of the source. Rule as the data show it: active = GI50 up to about 1.1 µM and inactive = higher. Non-standard residues stand in square brackets, D forms with d. Residues, ends and D or L forms follow the SMILES beside them. ξ: configuration not given here. *: point of attachment. ξF = NC(Cc1ccccc1)C(=O)O; Cbz = O=C(OCc1ccccc1)*; Aib = CC(C)(N)C(=O)O

Regarding `Nc1ccn(C2OC(COP(=O)(O)Oc3ccccc3)C(O)C2O)c(=O)n1` (stereo not given), the GI50 in assay [1] is 30.6 µM (inactive); in assay [2] it was > 100 µM (inactive); in assay [3], > 100 µM (inactive); in [4], > 100 µM (inactive); in assay [5], 56.5 µM (inactive); in [6], > 100 µM (inactive). Besides, the GI50 in assay [7] was 2.6 µM (inactive); in assay [8], > 100 µM (inactive); in assay [9], 61.2 µM (inactive); in [10] it was 1.01 µM (active); in assay [11], 13.5 µM (inactive); in [12], > 56.5 µM (inactive). Moreover, the GI50 in assay [13] is 61.9 µM (inactive); in [14], > 35.3 µM (inactive); in assay [15] it was 20 µM (inactive); in assay [16] it was 6.61 µM (inactive); in [17], 44.6 µM (inactive); in assay [18], 7.67 µM (inactive). The GI50 in assay [19] was 3.73 µM (inactive); in [20], > 100 µM (inactive).
In the case of `CN1C(=O)c2ccccc2NC(=O)c2cnn(C)c21`, the GI50 in assay [1], in [2], in assay [3], in [4], in [5] and in assay [6] was > 100 µM (inactive) each time. Further, the GI50 in assay [7], in [8], in assay [9], in assay [10], in [11] and in assay [12] was > 100 µM (inactive) each time. The GI50 in assay [13], in assay [14], in [15], in assay [16], in [17] and in [18] was > 100 µM (inactive) throughout. Besides, the GI50 in [19] and in assay [20] was > 100 µM (inactive) in each case.
For `C/C(CCOC1CCCCO1)=C(\C)[Si](C)(C)C` (stereo not given), the GI50 in [1], in assay [2], in assay [3], in assay [4], in assay [5] and in [6] was > 100 µM (inactive) throughout. Further, the GI50 in [7] is > 100 µM (inactive); in assay [8] it was > 100 µM (inactive); in [9], 93.3 µM (inactive); in assay [10], 65.5 µM (inactive); in [11] it was > 100 µM (inactive); in assay [12], > 100 µM (inactive). In addition, the GI50 in assay [13], in [14], in [15], in assay [16], in assay [17] and in assay [18] was > 100 µM (inactive) in each case. Further, the GI50 in assay [19] and in assay [20] was > 100 µM (inactive) throughout.
As for `c1cc(CNC2C3CCC(C3)C2c2c[nH]c3ccccc23)cc(CNC2C3CCC(C3)C2c2c[nH]c3ccccc23)c1` (stereo not given), the GI50 in assay [1] is 229 nM (active) and 160 nM (active); in assay [2], 1.73 µM (inactive) and 1.46 µM (inactive); in [3] it was 127 nM (active) and 145 nM (active); in assay [4], 1.76 µM (inactive) and 1.71 µM (inactive); in assay [5], 1.81 µM (inactive) and 1.74 µM (inactive); in assay [7], 366 nM (active) and 405 nM (active). Further, the GI50 was 1.57 µM (inactive) and 1.91 µM (inactive) in [8]; 195 nM (active) and 325 nM (active) in [10]; 1.76 µM (inactive) and 1.58 µM (inactive) in assay [11]; 1.35 µM (inactive) and 1.59 µM (inactive) in assay [12]; 1.87 µM (inactive) and 1.77 µM (inactive) in assay [14]; 1.58 µM (inactive) and 1.53 µM (inactive) in [15]. Moreover, the GI50 is 555 nM (active) and 232 nM (active) in assay [16]; 619 nM (active) and 615 nM (active) in assay [17]; 1.4 µM (inactive) and 1.46 µM (inactive) in [18]; 600 nM (active) and 773 nM (active) in assay [19]; 1.84 µM (inactive) and 1.82 µM (inactive) in [20].
Turning to `COc1ccc(N2C(=O)C(=O)C3(CCCCC3)C2=O)c2ccccc12`, the GI50 in [1] is 9.77 µM (inactive); in [2], > 10 µM (inactive); in assay [3], > 10 µM (inactive); in assay [5], > 10 µM (inactive); in assay [6], > 10 µM (inactive); in assay [7], > 10 µM (inactive). The GI50 in assay [8], in [9], in [10], in assay [11], in assay [12] and in [13] was > 10 µM (inactive) in each case. The GI50 in assay [14], in assay [15], in assay [16], in [17], in [18] and in assay [19] was > 10 µM (inactive) each time. For the same compound, in assay [20], the GI50 is > 10 µM (inactive).
In the case of `C=CCCCC12CCCc3cccc(c31)NC2=O` (stereo not given), the GI50 is 30.4 µM (inactive) in assay [1]; 76.2 µM (inactive) in [2]; 16.4 µM (inactive) in [3]; 18 µM (inactive) in assay [4]; 16.8 µM (inactive) in [5]; 20 µM (inactive) in [6]. In addition, the GI50 in assay [7] is 16.8 µM (inactive); in assay [8] it was 23.2 µM (inactive); in assay [9] it was 15.5 µM (inactive); in [10], 16.9 µM (inactive); in assay [11], 19.1 µM (inactive); in assay [12] it was 17.1 µM (inactive). Besides, the GI50 in assay [13] is 20.2 µM (inactive); in assay [14], 15.6 µM (inactive); in assay [16] it was 21.6 µM (inactive); in assay [17], 22 µM (inactive); in assay [19], 20.2 µM (inactive); in [20], 19.3 µM (inactive).
Take `COc1ccc(-n2cnnc2-c2nsc3ccccc23)cc1`: the GI50 in [1] is > 100 µM (inactive); in [3], > 100 µM (inactive); in assay [4], 51.4 µM (inactive); in [5] it was > 100 µM (inactive); in assay [6] it was > 100 µM (inactive); in [7], > 100 µM (inactive). For the same compound, the GI50 in assay [8] was > 100 µM (inactive); in assay [9], 78 µM (inactive); in assay [10], > 100 µM (inactive); in [11], > 100 µM (inactive); in assay [12] it was > 100 µM (inactive); in assay [13] it was > 100 µM (inactive). For the same compound, the GI50 in [15] is 75.3 µM (inactive); in assay [16] it was > 100 µM (inactive); in assay [17] it was > 100 µM (inactive); in assay [18], > 100 µM (inactive); in [19], > 100 µM (inactive); in assay [20] it was > 100 µM (inactive).
Regarding `O=c1[nH]c(=S)[nH]c2c(C3OC(CO)C(O)C3O)nsc12` (stereo not given), the GI50 in assay [2], in assay [3], in assay [4], in assay [5], in [6] and in assay [7] was > 100 µM (inactive) in each case. Also, the GI50 in assay [8], in [9], in assay [10], in assay [11], in assay [12] and in [13] was > 100 µM (inactive) throughout. The GI50 in assay [14], in assay [15], in assay [16], in [17], in assay [18] and in assay [19] was > 100 µM (inactive) each time. In addition, in assay [20], the GI50 was > 100 µM (inactive).
Regarding `COc1ccc(N2C(=O)C(=O)N(C)C2=O)c2ccccc12`, the GI50 in assay [1], in [2], in [3], in assay [4], in assay [5] and in assay [6] was > 10 µM (inactive) throughout. In addition, the GI50 in assay [7], in assay [8], in [9], in assay [10], in [11] and in [12] was > 10 µM (inactive) throughout. Moreover, the GI50 in assay [13], in assay [14], in assay [15], in assay [16], in assay [17] and in assay [18] was > 10 µM (inactive) throughout. Also, the GI50 in assay [19] and in [20] was > 10 µM (inactive) in each case.
Take `CCOC(=O)CNC(=O)C(Cc1ccccc1)NC(=O)C(C)(C)NC(=O)OCc1ccccc1` (stereo not given) (Cbz-[Aib]-[ξF]-Gly-OEt): the GI50 was > 100 µM (inactive) in assay [1]; > 100 µM (inactive) in assay [2]; 43.5 µM (inactive) in assay [3]; 21.5 µM (inactive) in assay [4]; 19.6 µM (inactive) in assay [5]; > 100 µM (inactive) in [6]. The GI50 was > 10 µM (inactive) in [7]; 32.9 µM (inactive) in [9]; > 100 µM (inactive) in [10]; > 100 µM (inactive) in assay [11]; > 100 µM (inactive) in [12]; 93.1 µM (inactive) in [13]. In addition, the GI50 in assay [14] was 18.6 µM (inactive); in assay [15] it was > 100 µM (inactive); in [16] it was 49.4 µM (inactive); in assay [17], > 100 µM (inactive); in [18], > 100 µM (inactive); in assay [19] it was > 100 µM (inactive). In addition, the GI50 in [20] is > 100 µM (inactive).
